Results on eight compounds are retold here after PubChem BioAssay (NCI).

Among the test systems are CCRF-CEM leukemia; HL-60(TB) leukemia; HOP-62 NSCLC; K-562 leukemia; NCI-H23 lung; NCI-H522 lung; RPMI-8226 leukemia; SK-OV-3 ovarian; U251 CNS; UACC-257 melanoma.
Common to all, as to assay: NCI tumour cell line growth inhibition, 48 h

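Each compound was tested at five concentrations against cells in 96-well plates for 48 hours. Abbreviation: GI50, concentration required for 50% inhibition of growth. TGI denotes the concentration required for complete inhibition of growth.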

As to `CC(=O)[CH-]C(=O)c1ccccc1.CC(=O)[CH-]C(=O)c1ccccc1.CC(C)CCCC(C)[C@H]1CCC2[C@@H]3CC=C4C[C@@H]([O-])CC[C@]4(C)C3CC[C@@]21C.CC[O-].[Ti+4]` (some centres undefined), the GI50 is 35.5 µM in the experiment on CCRF-CEM leukemia; 42.3 µM with HL-60(TB) leukemia; 43.2 µM in the experiment on HOP-62 NSCLC; 33.1 µM in the experiment with K-562 leukemia; 26.9 µM with NCI-H23 lung; 26.3 µM in the experiment on NCI-H522 lung. Moreover, the GI50 in the experiment on RPMI-8226 leukemia is 18.5 µM; in the experiment on SK-OV-3 ovarian it was above 100 µM; with U251 CNS, 48.7 µM; with UACC-257 melanoma it was 60.3 µM. The TGI was above 100 µM in the experiment with CCRF-CEM leukemia; above 100 µM with HL-60(TB) leukemia; above 100 µM in the experiment on HOP-62 NSCLC; above 100 µM in the experiment with K-562 leukemia; 84.2 µM with NCI-H23 lung; 71.2 µM in the experiment on NCI-H522 lung. The TGI in the experiment with RPMI-8226 leukemia was 52.2 µM; in the experiment with SK-OV-3 ovarian, above 100 µM; in the experiment with U251 CNS, above 100 µM; with UACC-257 melanoma, above 100 µM.
As for `O=[N+]([O-])c1nccn1CC(O)CN1CC1` (centres undefined), the TGI in the experiment with CCRF-CEM leukemia was above 100 µM; in the experiment on HL-60(TB) leukemia it was 73.1 µM; in the experiment on HOP-62 NSCLC, above 100 µM; with K-562 leukemia, above 100 µM; with NCI-H23 lung it was above 100 µM; in the experiment with NCI-H522 lung, 50.9 µM. Further, the TGI in the experiment on RPMI-8226 leukemia is above 100 µM; in the experiment on SK-OV-3 ovarian, 94.7 µM; with U251 CNS, above 100 µM; in the experiment with UACC-257 melanoma, above 100 µM.
Regarding `N[C@@H]1CCCC[C@H]1N.O=C([O-])C(=O)[O-].[Pt+4]`, the GI50 in the experiment with CCRF-CEM leukemia was 0.35 µM; with HL-60(TB) leukemia it was 2.83 µM; in the experiment on HOP-62 NSCLC it was 46.2 µM; in the experiment on K-562 leukemia it was 0.854 µM; in the experiment with NCI-H23 lung it was 1.76 µM; with NCI-H522 lung it was 3.92 µM. Moreover, the GI50 in the experiment on RPMI-8226 leukemia is 0.0528 µM; in the experiment with SK-OV-3 ovarian it was above 66.2 µM; in the experiment on U251 CNS, 1.83 µM; in the experiment on UACC-257 melanoma it was 10.7 µM. In addition, the TGI with CCRF-CEM leukemia was above 100 µM; in the experiment on HL-60(TB) leukemia, above 100 µM; with HOP-62 NSCLC, above 100 µM; with K-562 leukemia it was above 95.3 µM; in the experiment with NCI-H23 lung it was 15.2 µM; with NCI-H522 lung, 32.3 µM. The TGI in the experiment on RPMI-8226 leukemia was above 91.2 µM; in the experiment on SK-OV-3 ovarian it was above 100 µM; in the experiment on U251 CNS, 27.1 µM; with UACC-257 melanoma it was above 81.1 µM.
As to `CCOc1ccc(-c2nonc2NC(=O)c2cccc(C)c2)cc1OCC`, the GI50 in the experiment with CCRF-CEM leukemia was above 100 µM; with HL-60(TB) leukemia it was above 100 µM; with HOP-62 NSCLC, above 100 µM; with K-562 leukemia it was above 100 µM; in the experiment on NCI-H23 lung it was 35.8 µM; in the experiment on NCI-H522 lung, above 100 µM. The GI50 in the experiment on RPMI-8226 leukemia was above 100 µM; in the experiment on SK-OV-3 ovarian it was above 100 µM; in the experiment with U251 CNS, 30.5 µM; with UACC-257 melanoma, above 100 µM. The TGI in the experiment on CCRF-CEM leukemia, with HL-60(TB) leukemia, in the experiment on HOP-62 NSCLC, in the experiment with K-562 leukemia, in the experiment on NCI-H23 lung and in the experiment on NCI-H522 lung was above 100 µM throughout. Further, the TGI in the experiment with RPMI-8226 leukemia, in the experiment with SK-OV-3 ovarian, in the experiment on U251 CNS and with UACC-257 melanoma was above 100 µM each time.
`C/C(=N/Nc1nc2ccccc2n1C)c1ccccn1`: the GI50 in the experiment with CCRF-CEM leukemia was 0.0252 µM; in the experiment on HL-60(TB) leukemia, 0.0177 µM; with HOP-62 NSCLC, 0.185 µM; in the experiment with K-562 leukemia, 0.0173 µM; in the experiment on NCI-H23 lung, 0.0443 µM; in the experiment on NCI-H522 lung it was 0.223 µM. Also, the GI50 with RPMI-8226 leukemia was 0.0398 µM; in the experiment with SK-OV-3 ovarian, 0.113 µM; in the experiment on U251 CNS, 0.115 µM; with UACC-257 melanoma, 0.0377 µM. In addition, the TGI was 0.391 µM with HL-60(TB) leukemia; 4.49 µM in the experiment with HOP-62 NSCLC; above 100 µM in the experiment on K-562 leukemia; 19.3 µM in the experiment on NCI-H23 lung; 9.34 µM in the experiment with NCI-H522 lung; 15.3 µM with RPMI-8226 leukemia. Moreover, the TGI in the experiment on SK-OV-3 ovarian worked out at 5.93 µM; in the experiment on U251 CNS, 19.7 µM; in the experiment on UACC-257 melanoma, 0.489 µM.
On to `Ic1ccccc1-c1ccccc1`, for which the GI50 in the experiment with CCRF-CEM leukemia was 41.5 µM; in the experiment on HL-60(TB) leukemia it was 37.1 µM; with HOP-62 NSCLC, above 100 µM; in the experiment with K-562 leukemia, above 100 µM; with NCI-H23 lung, above 100 µM; in the experiment on NCI-H522 lung, above 100 µM. Also, the GI50 is 62.7 µM in the experiment with RPMI-8226 leukemia, above 100 µM with SK-OV-3 ovarian, above 100 µM with U251 CNS and above 100 µM with UACC-257 melanoma. The TGI with CCRF-CEM leukemia, in the experiment on HL-60(TB) leukemia, with HOP-62 NSCLC, with K-562 leukemia, with NCI-H23 lung and with NCI-H522 lung was above 100 µM throughout. Besides, the TGI in the experiment on RPMI-8226 leukemia, in the experiment with SK-OV-3 ovarian, in the experiment with U251 CNS and with UACC-257 melanoma was above 100 µM in each case.
Take `NC(N)=N/N=C\c1cccc(OCc2ccccc2)c1`: the GI50 is 9.53 µM in the experiment with CCRF-CEM leukemia; 2.66 µM in the experiment with HL-60(TB) leukemia; 5.16 µM with HOP-62 NSCLC; 3.87 µM in the experiment with K-562 leukemia; 11.7 µM with NCI-H23 lung; 2.16 µM with NCI-H522 lung. Further, the GI50 is 2.33 µM in the experiment with RPMI-8226 leukemia, 10.5 µM with SK-OV-3 ovarian, 1.87 µM with U251 CNS and 1.82 µM in the experiment on UACC-257 melanoma. The TGI was found to be 33.7 µM with CCRF-CEM leukemia; 6.35 µM with HL-60(TB) leukemia; 19.1 µM in the experiment on HOP-62 NSCLC; 16.1 µM with K-562 leukemia; 27.6 µM with NCI-H23 lung; 11.3 µM in the experiment on NCI-H522 lung. Moreover, the TGI worked out at 8.17 µM in the experiment on RPMI-8226 leukemia, 22.3 µM in the experiment with SK-OV-3 ovarian, 4.12 µM in the experiment with U251 CNS and 4.07 µM in the experiment with UACC-257 melanoma.
Consider `COC(=O)/C([Se]c1c(C)cc(C)cc1C)=C(\[Se]c1c(C)cc(C)cc1C)C(=O)OC`, for which the TGI in the experiment on CCRF-CEM leukemia, with HL-60(TB) leukemia, in the experiment with HOP-62 NSCLC, in the experiment with K-562 leukemia, with NCI-H23 lung and in the experiment with NCI-H522 lung was above 100 µM each time. In addition, the TGI in the experiment on RPMI-8226 leukemia, in the experiment on SK-OV-3 ovarian, in the experiment on U251 CNS and in the experiment with UACC-257 melanoma was above 100 µM throughout.
